Assay results reported in patent US20030229105A1, “Treatment of autoimmune disorders” (Cyclacel Limited, priority 2002, published 2003).

Experiments:
cdk9-cyclin T complex = cdk9-cyclin T complex (Homo sapiens, UniProt P50750); experiment: cdk9-cyclin T immunoprecipitate CTD kinase assay from treated cells; conditions: 10 μM (FIG. 5B)
[1] = test system: HIV-1 genomic, structural, and regulatory RNAs; experiment: Northern blot with whole genomic HIV-1 probe in ACH2 cells; assay type: cell-based; conditions: ACH2, TNF-α, then increasing concentrations (1, 10, 50 μM)
Description: At days 2, 4, and 6, the supernatants were collected, and the released HIV-1 particles were measured by using a p24 antigen ELISA assay. (B) Twenty micrograms of total RNA was separated on an RNA-formaldehyde-agarose gel, transferred, and probed with full-length labeled HIV-1 genome RNA. The hybridized genomic RNA, singly spliced (structural), and doubly spliced (regulatory) RNAs were exposed and counted by using Molecular Dynamic PhosphorImager software.

caspase-3 = experiment: Caspase-3 colorimetric protease assay (DEVD-pNA) on cell lysates; assay type: cell-based; conditions: induced ACH2 cells, 37° C., 3 h
From the text: Apoptosis and necrosis are two pathways that lead to cell death. Apoptosis is characterized by a series of morphological features, including cell shrinkage, plasma membrane blebbing, phosphatidylserine translocation to the outer leaflet of the plasma membrane, nuclear condensation, and DNA fragmentation (1). To distinguish apoptotic from necrotic cells, we performed a flow cytometry experiment using Annexin V and PI double staining. Annexin V is a sensitive probe for phosphatidylserine, and PI was used to detect membrane loss, since membrane loss leads to the accessibility of PI staining to DNA. […] Absorbances of the samples were read every 60 min in a Spectramax 250 microplate reader at 405 nm.
(§1) Cells were collected, stained with PI and FITC-Annexin V, and analyzed by FACS. […] The antigen-antibody complexes were detected using ^125I-labeled protein G. (C) Cells were washed in PBS and analyzed for caspase-3 activity using a colorimetric protease assay kit (Chemicon). […] Absorbances of samples were read every 60 min in a microplate reader at 405 nm.
Cells were washed in PBS and analyzed for caspase-3 activity by using a CPP32/Caspase-3 Colorimetric Protease Assay Kit (Chemicon, Temecula, Calif.) according to the manufacturers' instructions. […] Protein concentrations of the lysates were determined by using the bicinchoninic acid assay reagent (Pierce, Rockford, Ill.). […]

[2] = test system: HIV-1-infected ACH2 cells; experiment: Annexin V and PI double staining flow cytometry; assay type: cell-based; conditions: ACH2, especially with TNF-α; 10 μM, 48 h
From the text: (§2) Apoptosis and necrosis are two pathways that lead to cell death. Apoptosis is characterized by a series of morphological features, including cell shrinkage, plasma membrane blebbing, phosphatidylserine translocation to the outer leaflet of the plasma membrane, nuclear condensation, and DNA fragmentation (1). To distinguish apoptotic from necrotic cells, we performed a flow cytometry experiment using Annexin V and PI double staining. Annexin V is a sensitive probe for phosphatidylserine, and PI was used to detect membrane loss, since membrane loss leads to the accessibility of PI staining to DNA. […] At 48 h after drug treatment, most of the apoptotic cells were found at the late stage of apoptosis and not in the necrotic population (FIG. 6A). […] Absorbances of the samples were read every 60 min in a Spectramax 250 microplate reader at 405 nm.
as §1
Apoptosis was determined by using Annexin V and PI double staining (Annexin V-FITC; PharMingen International). […] Cells were acquired and analyzed using CELLQuest software (Becton Dickinson).

PARP = experiment: Immunoblot of PARP cleavage; assay type: cell-based; conditions: induced ACH2 cells exposed to Roscovitine
From the text: as §2, with “6A). We next investigated whether the apoptotic cascade through the caspase-3 pathway was activated under drug treatment.” for “6A).”
as §1

[3] = test system: U1 cells (latently HIV-1 infected); experiment: Cell cycle analysis (PI staining, FACS) of HIV-1-infected U1 cells; conditions: U1 cells plus TNF-α (FIG. 2C)
cdk6 = cdk6 (Homo sapiens, UniProt Q00534); conditions: cited from earlier work
[4] = test system: U937 uninfected monocytic parental cell line; experiment: Cell cycle analysis (PI staining, FACS) of uninfected U937 cells; conditions: U937 cells (FIG. 2C)
HTLV-1 = experiment: p19 gag ELISA of TNF-α-treated HTLV-1-infected MT-2 cells; assay type: cell-based; conditions: TNF-α 2 h, then drug, 7 days

Sequence of cdk9-cyclin T complex (P50750 whole entry): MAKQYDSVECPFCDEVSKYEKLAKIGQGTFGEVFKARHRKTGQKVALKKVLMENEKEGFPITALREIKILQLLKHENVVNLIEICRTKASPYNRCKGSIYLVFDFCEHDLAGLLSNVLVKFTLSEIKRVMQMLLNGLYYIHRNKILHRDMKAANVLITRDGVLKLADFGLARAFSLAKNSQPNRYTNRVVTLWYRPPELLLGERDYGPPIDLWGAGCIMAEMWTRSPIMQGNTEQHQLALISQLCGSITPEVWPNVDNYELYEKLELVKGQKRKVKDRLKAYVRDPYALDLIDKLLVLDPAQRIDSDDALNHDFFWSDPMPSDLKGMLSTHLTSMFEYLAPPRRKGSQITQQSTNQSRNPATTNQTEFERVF
Sequence of cdk9-cyclin T complex (O60563 whole entry partner): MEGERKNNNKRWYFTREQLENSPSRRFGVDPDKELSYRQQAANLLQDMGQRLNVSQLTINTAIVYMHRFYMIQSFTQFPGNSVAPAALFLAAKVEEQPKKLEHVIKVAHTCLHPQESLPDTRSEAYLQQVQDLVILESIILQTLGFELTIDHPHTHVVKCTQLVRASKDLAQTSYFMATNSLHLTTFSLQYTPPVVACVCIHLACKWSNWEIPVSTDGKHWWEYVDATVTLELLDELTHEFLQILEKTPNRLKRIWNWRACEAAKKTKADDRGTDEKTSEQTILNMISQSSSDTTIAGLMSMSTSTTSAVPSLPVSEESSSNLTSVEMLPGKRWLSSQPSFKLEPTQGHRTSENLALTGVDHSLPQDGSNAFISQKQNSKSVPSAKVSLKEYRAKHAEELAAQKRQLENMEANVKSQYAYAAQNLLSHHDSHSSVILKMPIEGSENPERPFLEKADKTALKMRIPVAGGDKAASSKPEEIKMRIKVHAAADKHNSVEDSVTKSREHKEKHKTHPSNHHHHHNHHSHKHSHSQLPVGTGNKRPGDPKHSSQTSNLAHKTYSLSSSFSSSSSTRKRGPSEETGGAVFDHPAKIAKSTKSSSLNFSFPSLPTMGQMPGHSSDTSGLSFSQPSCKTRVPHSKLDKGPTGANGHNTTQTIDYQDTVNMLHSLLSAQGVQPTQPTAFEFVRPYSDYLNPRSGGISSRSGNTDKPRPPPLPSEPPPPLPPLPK
Sequence of cdk6 (Q00534 whole entry): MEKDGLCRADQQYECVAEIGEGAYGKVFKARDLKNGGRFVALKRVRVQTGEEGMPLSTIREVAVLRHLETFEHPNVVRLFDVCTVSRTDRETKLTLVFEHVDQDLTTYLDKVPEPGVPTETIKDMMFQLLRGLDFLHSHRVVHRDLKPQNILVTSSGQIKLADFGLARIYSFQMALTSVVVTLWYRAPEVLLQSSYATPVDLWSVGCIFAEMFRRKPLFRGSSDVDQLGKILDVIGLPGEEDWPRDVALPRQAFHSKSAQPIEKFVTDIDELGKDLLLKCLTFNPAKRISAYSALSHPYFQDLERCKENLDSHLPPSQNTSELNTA
Sequence of cdk6 (P30279 whole entry partner): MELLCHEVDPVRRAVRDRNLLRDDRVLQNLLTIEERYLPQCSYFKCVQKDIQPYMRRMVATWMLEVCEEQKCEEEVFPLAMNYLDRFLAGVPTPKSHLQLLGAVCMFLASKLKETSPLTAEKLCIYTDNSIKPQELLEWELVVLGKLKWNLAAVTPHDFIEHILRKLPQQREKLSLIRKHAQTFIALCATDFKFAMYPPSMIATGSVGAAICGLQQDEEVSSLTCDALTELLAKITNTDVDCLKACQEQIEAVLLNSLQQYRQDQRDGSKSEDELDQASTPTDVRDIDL

Molecule | cdk9 levels and activity on phosphorylation of RNA Pol II CTD (cdk9-cyclin T complex) | HIV-1 genomic, structural, and regulatory RNA levels [1] | caspase-3 activity increase (caspase-3) | number of apoptotic (Annexin V-stained) cells [2] | PARP cleavage (PARP) | apoptosis in U1 cells [3] | reported inhibition of cdk6 (cdk6) | apoptosis in uninfected parental cells [4] | inhibition of HTLV-1 replication (p19 gag) (HTLV-1)
Roscovitine | decrease of cdk9 levels and its activity | dramatically decreased | ~5 fold | remarkable increase in the number of apoptotic cells | almost completely cleaved | abundance of the apoptotic population | not cdk4 or -6 | no apparent apoptosis | –
CC(C)[C@H](CO)Nc1nc(Nc2cccc(Cl)c2)c2ncn(C(C)C)c2n1 [Purvalanol A] | – | – | – | – | – | – | – | – | inhibited HTLV-1 replication
